Assay results as given in patent US20130267551A1, “SUBSTITUTED HYDROGENATED THIENO-PYRROLO[3,2-C]PYRIDINE, LIGANDS, A PHARMACEUTICAL COMPOSITION AND A METHOD FOR USING THE ABOVE” (ALLA CHEM, LLC, priority 2010, published 2013).
Where a name gives a salt, the structure may show the parent alone. Read-outs that look alike come from different tables or passages of the source.

Key:
[1] = target: Serotoninergic 5-HT2B (Homo sapiens, UniProt P41595); experiment: competitive radioligand binding, Serotoninergic 5-HT2B; conditions: read-out: radio-labelled ligand displacement, Serotoninergic 5-HT2B
Chain of Serotoninergic 5-HT2B (P41595 whole entry): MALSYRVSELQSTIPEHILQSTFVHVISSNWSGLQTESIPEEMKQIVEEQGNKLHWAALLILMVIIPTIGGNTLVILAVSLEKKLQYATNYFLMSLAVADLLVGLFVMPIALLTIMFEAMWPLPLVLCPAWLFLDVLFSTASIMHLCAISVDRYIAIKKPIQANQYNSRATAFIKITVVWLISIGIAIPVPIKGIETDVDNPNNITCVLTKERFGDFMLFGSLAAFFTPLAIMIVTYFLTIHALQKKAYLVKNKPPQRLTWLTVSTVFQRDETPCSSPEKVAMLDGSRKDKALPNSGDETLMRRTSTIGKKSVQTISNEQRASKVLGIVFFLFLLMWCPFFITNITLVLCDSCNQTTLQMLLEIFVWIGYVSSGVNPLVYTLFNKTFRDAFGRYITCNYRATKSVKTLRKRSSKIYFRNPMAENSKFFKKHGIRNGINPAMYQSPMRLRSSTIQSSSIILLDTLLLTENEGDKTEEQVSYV
Method: (§1) Profiles of pharmacological activity of thieno-pyrrolo[3,2-c]pyridines of the general formula 1. Biological activity test of compounds of the general formula 1 was carried out in the setting of competitive radioligand binding [I. Okun, S. Tkachenko, A. Khvat, et al., Current Alzheimer Research, 7(2), 97-112 (2010)], using a wide range of therapeutic targets including G-protein coupled receptors (GPCR), ion channels and neuromediator transporters. The tested activity was determined by quantitative measurement of radio-labelled ligand displacement by tested compounds of the general formula 1 at their concentration of 1 μM.

[2] = target: Serotoninergic 5-HT6 (Homo sapiens, UniProt P50406); experiment: competitive radioligand binding, Serotoninergic 5-HT6; conditions: compound concentration of 1 μM; read-out: radio-labelled ligand displacement, Serotoninergic 5-HT6
Chain of Serotoninergic 5-HT6 (P50406 whole entry): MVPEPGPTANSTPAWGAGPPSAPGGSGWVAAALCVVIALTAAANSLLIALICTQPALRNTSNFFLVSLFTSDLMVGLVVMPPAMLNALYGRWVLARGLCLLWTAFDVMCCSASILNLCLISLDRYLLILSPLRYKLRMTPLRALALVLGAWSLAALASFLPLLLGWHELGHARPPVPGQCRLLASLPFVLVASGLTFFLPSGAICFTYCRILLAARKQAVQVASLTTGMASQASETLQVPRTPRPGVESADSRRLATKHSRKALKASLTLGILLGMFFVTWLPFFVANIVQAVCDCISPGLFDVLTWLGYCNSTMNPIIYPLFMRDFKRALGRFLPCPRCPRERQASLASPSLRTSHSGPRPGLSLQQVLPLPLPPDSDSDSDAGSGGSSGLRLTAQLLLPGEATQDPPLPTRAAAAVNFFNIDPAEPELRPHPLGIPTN
Method: as §1

[3] = tested on: Adrenergic α1B; experiment: competitive radioligand binding, Adrenergic α1B; conditions: compound concentration of 1 μM
Method: as §1

[4] = target: Serotoninergic 5-HT7 (Homo sapiens, UniProt P34969); experiment: competitive radioligand binding, Serotoninergic 5-HT7; conditions: compound concentration of 1 μM; read-out: radio-labelled ligand displacement, Serotoninergic 5-HT7
Chain of Serotoninergic 5-HT7 (P34969 whole entry): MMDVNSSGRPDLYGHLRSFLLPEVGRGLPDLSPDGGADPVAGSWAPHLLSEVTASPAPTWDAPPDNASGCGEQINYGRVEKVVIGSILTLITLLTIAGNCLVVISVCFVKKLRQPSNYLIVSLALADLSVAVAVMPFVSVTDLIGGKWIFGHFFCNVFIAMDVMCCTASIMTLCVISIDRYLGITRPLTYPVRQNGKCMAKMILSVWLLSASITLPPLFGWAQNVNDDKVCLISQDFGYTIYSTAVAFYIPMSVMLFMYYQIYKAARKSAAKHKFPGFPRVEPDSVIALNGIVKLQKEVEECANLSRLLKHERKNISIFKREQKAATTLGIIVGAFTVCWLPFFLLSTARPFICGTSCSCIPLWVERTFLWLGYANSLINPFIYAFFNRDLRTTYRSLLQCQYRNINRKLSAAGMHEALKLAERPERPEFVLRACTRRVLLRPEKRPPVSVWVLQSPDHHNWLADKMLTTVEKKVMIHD
Method: as §1

[5] = target: T1, Adrenergic α1D (Homo sapiens, UniProt P25100); experiment: competitive radioligand binding, Adrenergic α1D; conditions: compound concentration of 1 μM; read-out: radio-labelled ligand displacement, Adrenergic α1D
T1 sequence (P25100 1-572): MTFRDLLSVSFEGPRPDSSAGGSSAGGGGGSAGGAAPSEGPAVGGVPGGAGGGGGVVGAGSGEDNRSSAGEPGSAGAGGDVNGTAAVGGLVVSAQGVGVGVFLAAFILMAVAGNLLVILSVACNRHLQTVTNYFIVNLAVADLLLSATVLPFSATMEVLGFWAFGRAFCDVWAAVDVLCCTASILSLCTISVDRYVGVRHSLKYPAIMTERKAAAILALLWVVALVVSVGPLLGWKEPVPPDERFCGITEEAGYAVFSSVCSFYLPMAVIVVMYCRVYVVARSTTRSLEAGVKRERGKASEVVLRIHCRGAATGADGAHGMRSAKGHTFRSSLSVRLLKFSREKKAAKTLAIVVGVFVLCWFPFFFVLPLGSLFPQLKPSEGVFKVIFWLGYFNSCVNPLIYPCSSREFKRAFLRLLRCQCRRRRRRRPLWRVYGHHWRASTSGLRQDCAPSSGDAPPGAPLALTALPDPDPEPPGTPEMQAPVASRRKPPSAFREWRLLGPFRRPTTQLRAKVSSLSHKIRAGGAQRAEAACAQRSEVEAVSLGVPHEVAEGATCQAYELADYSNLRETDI
Method: as §1

[6] = target: Dopaminergic D2L (Homo sapiens, UniProt P14416); experiment: competitive radioligand binding, Dopaminergic D2L; conditions: compound concentration of 1 μM; read-out: radio-labelled ligand displacement, Dopaminergic D2L
Chain of Dopaminergic D2L (P14416 whole entry): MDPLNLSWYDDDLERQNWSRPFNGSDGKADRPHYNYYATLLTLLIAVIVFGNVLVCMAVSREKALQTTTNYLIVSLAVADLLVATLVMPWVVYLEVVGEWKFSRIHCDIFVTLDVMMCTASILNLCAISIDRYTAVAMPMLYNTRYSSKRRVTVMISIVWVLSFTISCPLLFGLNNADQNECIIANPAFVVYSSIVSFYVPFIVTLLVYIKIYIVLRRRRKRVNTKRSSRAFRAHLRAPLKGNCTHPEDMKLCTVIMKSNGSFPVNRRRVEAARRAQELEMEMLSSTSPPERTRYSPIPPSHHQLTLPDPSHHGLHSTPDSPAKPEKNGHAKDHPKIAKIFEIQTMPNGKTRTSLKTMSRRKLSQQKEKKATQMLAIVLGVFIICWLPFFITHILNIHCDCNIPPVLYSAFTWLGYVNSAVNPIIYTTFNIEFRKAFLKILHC
Method: as §1

[7] = target: T2, Adrenergic α2A (Homo sapiens, UniProt P08913); experiment: competitive radioligand binding, Adrenergic α2A; conditions: read-out: radio-labelled ligand displacement, Adrenergic α2A
T2 sequence (P08913 1-465): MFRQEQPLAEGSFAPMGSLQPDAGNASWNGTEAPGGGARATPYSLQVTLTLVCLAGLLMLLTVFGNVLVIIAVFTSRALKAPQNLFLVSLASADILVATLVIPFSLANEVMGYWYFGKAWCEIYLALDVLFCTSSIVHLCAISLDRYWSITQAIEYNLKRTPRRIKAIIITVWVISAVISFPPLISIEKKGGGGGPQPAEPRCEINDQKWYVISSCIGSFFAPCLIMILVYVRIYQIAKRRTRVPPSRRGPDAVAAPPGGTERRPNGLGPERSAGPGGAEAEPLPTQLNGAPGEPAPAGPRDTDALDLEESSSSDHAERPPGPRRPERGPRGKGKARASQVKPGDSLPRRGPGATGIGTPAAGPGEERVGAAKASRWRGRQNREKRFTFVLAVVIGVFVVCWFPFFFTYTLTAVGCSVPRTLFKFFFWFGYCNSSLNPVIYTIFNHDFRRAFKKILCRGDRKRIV
Method: as §1

[8] = target: T3, Serotoninergic 5-HT2C (Homo sapiens, UniProt P28335); experiment: competitive radioligand binding, Serotoninergic 5-HT2C; conditions: read-out: radio-labelled ligand displacement, Serotoninergic 5-HT2C
T3 sequence (P28335 33-458): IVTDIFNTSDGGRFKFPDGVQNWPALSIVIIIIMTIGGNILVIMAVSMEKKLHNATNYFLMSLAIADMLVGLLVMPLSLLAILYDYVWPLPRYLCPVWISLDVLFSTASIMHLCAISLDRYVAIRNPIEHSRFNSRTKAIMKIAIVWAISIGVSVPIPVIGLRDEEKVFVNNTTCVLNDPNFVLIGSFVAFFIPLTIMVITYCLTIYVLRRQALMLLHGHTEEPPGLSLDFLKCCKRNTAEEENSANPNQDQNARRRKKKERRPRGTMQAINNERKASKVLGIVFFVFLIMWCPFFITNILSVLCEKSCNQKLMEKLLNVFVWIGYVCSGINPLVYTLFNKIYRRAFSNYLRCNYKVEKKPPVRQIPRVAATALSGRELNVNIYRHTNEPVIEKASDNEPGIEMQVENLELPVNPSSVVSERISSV
Method: as §1

[9] = target: Serotoninergic 5-HT2A (Homo sapiens, UniProt P28223); experiment: competitive radioligand binding, Serotoninergic 5-HT2A; conditions: read-out: radio-labelled ligand displacement, Serotoninergic 5-HT2A
Chain of Serotoninergic 5-HT2A (P28223 whole entry): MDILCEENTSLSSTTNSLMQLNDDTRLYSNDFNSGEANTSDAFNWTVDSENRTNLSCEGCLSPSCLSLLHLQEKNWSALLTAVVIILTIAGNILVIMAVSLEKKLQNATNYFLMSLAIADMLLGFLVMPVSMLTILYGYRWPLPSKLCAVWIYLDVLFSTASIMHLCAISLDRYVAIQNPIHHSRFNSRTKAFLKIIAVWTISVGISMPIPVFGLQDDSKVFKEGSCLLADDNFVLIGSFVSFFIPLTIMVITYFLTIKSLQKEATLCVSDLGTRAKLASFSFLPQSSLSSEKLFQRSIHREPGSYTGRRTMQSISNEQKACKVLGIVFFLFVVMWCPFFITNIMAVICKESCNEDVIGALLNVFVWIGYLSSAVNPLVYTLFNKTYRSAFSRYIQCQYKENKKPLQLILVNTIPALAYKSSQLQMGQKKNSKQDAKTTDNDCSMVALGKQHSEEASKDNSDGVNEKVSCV
Method: as §1

[10] = target: Dopaminergic D1 (Homo sapiens, UniProt P21728); experiment: competitive radioligand binding, Dopaminergic D1; conditions: compound concentration of 1 μM; read-out: radio-labelled ligand displacement, Dopaminergic D1
Chain of Dopaminergic D1 (P21728 whole entry): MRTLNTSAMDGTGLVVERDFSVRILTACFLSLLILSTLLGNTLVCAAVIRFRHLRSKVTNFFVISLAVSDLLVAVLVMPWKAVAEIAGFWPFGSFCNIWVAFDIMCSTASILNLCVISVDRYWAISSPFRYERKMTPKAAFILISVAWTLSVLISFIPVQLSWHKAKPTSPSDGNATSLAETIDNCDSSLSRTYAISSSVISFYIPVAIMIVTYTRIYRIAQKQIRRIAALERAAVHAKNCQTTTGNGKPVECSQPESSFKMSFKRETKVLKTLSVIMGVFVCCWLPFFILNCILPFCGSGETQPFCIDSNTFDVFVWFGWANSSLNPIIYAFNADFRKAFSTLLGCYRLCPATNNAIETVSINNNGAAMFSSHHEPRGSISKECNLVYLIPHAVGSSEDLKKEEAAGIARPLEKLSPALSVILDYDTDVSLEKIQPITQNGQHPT
Method: as §1

[11] = tested on: Serotoninergic 5-HT1B; experiment: competitive radioligand binding, Serotoninergic 5-HT1B; conditions: compound concentration of 1 μM
Method: as §1

[12] = target: Histaminergic H2 (Homo sapiens, UniProt P25021); experiment: competitive radioligand binding, Histaminergic H2; conditions: compound concentration of 1 μM; read-out: radio-labelled ligand displacement, Histaminergic H2
Chain of Histaminergic H2 (P25021 whole entry): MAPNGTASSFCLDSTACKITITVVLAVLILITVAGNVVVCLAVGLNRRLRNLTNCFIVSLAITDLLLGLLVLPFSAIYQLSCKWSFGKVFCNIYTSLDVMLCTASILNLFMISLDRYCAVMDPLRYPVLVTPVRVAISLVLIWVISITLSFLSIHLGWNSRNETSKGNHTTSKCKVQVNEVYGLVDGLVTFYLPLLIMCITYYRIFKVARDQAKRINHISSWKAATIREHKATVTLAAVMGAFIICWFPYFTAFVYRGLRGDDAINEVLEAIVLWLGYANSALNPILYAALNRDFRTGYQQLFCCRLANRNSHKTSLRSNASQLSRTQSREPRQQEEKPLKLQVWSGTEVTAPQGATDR
Method: as §1

[13] = target: Histaminergic H3 (Homo sapiens, UniProt Q9Y5N1); experiment: competitive radioligand binding, Histaminergic H3; conditions: compound concentration of 1 μM; read-out: radio-labelled ligand displacement, Histaminergic H3
Chain of Histaminergic H3 (Q9Y5N1 whole entry): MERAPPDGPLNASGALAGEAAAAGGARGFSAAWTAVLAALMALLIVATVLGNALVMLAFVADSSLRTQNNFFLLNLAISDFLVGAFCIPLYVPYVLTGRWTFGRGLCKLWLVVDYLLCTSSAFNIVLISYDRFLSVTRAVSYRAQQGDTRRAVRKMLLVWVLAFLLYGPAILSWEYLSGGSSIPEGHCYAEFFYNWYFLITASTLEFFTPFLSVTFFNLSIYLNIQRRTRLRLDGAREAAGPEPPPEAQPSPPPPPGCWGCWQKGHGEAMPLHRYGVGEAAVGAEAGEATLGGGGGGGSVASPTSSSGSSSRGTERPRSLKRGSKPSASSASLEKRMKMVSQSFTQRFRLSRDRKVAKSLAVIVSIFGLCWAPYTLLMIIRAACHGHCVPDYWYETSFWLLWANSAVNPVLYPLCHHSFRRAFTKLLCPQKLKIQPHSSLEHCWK
Method: as §1

[14] = target: Dopaminergic D3 (Homo sapiens, UniProt P35462); experiment: competitive radioligand binding, Dopaminergic D3; conditions: compound concentration of 1 μM; read-out: radio-labelled ligand displacement, Dopaminergic D3
Chain of Dopaminergic D3 (P35462 whole entry): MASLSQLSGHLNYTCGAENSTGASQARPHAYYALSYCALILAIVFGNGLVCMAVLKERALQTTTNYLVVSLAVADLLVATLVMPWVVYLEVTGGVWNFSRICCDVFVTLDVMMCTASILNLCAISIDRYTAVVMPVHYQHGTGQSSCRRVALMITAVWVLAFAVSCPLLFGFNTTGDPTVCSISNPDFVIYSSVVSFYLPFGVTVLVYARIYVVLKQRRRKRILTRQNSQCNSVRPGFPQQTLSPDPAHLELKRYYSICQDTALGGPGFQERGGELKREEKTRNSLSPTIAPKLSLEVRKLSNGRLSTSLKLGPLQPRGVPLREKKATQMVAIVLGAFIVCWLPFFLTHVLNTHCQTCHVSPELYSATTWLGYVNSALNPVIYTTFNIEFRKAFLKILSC
Method: as §1

[15] = target: Dopaminergic D2S (Homo sapiens, UniProt P14416); experiment: competitive radioligand binding, Dopaminergic D2S; conditions: compound concentration of 1 μM; read-out: radio-labelled ligand displacement, Dopaminergic D2S
Chain of Dopaminergic D2S (P14416 1-414 isoform P14416-2): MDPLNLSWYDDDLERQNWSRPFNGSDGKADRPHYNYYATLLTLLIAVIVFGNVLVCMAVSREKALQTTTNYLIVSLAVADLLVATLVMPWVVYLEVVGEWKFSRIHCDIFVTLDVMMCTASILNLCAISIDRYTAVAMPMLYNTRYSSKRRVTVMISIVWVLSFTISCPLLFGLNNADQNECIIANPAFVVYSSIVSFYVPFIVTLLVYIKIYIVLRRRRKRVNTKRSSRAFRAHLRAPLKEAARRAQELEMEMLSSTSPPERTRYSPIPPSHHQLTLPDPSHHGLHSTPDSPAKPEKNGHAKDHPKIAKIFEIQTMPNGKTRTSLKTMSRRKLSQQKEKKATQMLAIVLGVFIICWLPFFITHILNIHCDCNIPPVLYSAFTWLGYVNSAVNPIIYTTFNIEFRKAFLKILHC
Method: as §1

SMILES | inhibition at 1 µM ([1]; compound concentration of 1 μM) | inhibition at 1 µM [2] | radio-labelled ligand displacement, Adrenergic α1B [3] | inhibition at 1 µM [4] | inhibition at 1 µM [5] | inhibition at 1 µM [6] | inhibition at 1 µM ([7]; compound concentration of 1 μM) | inhibition at 1 µM ([8]; compound concentration of 1 μM) | inhibition at 1 µM [9] | inhibition at 1 µM [10] | radio-labelled ligand displacement, Serotoninergic 5-HT1B [11] | inhibition at 1 µM [12] | inhibition at 1 µM [13] | inhibition at 1 µM [14] | inhibition at 1 µM [15] | inhibition at 1 µM [1] | inhibition at 1 µM [7] | inhibition at 1 µM [8]
Cc1cc2c(s1)c1c(n2-c2cccc(F)c2)CCN(C)C1 [2.4(3)•HCl, 2,7-dimethyl-4-(3-fluorophenyl)-5,6,7,8-tetrahydro-4H-thieno[2′,3′:4,5]pyrrolo[3,2-c]pyridine] | 39% | 26% | 10% | 43% | 28% | 4% | 14% | 33% | 41% | 5% | 5% | 29% | 1% | 11% | 3% |  |  | 
Cc1cc2c(s1)c1c(n2Cc2ccccc2)CCN(C)C1.Cl [2.5(1)•HCl, 4-Benzyl-2,7-dimethyl-5,6,7,8-tetrahydro-4H-thieno[2′,3′:4,5]pyrrolo[3,2-c]pyridine hydrochloride] |  | 55% | 10% | 92% | 21% | 8% |  |  | 93% | 5% | 6% | 44% | -4% | 16% | -6% | 91% | 34% | 84%
Cc1ccc(Cn2c3c(c4sc(Cl)cc42)C(C)N(C)C(C)C3)cn1 (stereo not drawn) [2.5(4)•HCl, 4-(6-methylpyridin-3-ylmethyl)-6,7,8-trimethyl-2-chloro-5,6,7,8-tetrahydro-4H-thieno[2′,3′:4,5]pyrrolo[3,2-c]pyridine] | 78% | 85% | 38% | 87% | 29% | 11% | 42% | 91% | 91% | 3% | 28% | 83% | 9% | 15% | 17% |  |  | 
Cc1cc2c(s1)c1c(n2CCc2ccccc2)CCN(C)C1.Cl [2.6(1)•HCl, 2,7-Dimethyl-4-(2-phenylethyl)-5,6,7,8-tetrahydro-4H-thieno[2′,3′:4,5]pyrrolo[3,2-c]pyridine hydrochloride] |  | 98% | 90% | 98% | 64% | 76% |  |  | 99% | 15% | 18% | 56% | -15% | 62% | 73% | 79% | 80% | 89%
CC1Cc2c(c3sc(Cl)cc3n2C#Cc2cccc(F)c2)C(C)N1C (stereo not drawn) [2.10(3)•HCl, 6,7,8-trimethyl-4-(3-fluorophenyl)ethynyl-2-chloro-5,6,7,8-tetrahydro-4H-thieno[2′,3′:4,5]pyrrolo[3,2-c]pyridine] | 39% | 35% | 5% | 33% | 11% | 20% | 17% | 31% | 43% | 4% | 9% | 33% | -10% | 23% | 31% |  |  | 
Cc1ccc(CCCn2c3c(c4scc(Cl)c42)CN(C)CC3)cn1 [2.12(5)•HCl, 7-methyl-4-[3-(6-methylpyridin-3-yl)propyl]-3-chloro-5,6,7,8-tetrahydro-4H-thieno[2′,3′:4,5]pyrrolo[3,2-c]pyridine] | 95% | 100% | 97% | 99% | 93% | 87% | 101% | 99% | 99% | 75% | 62% | 96% | 12% | 71% | 89% |  |  | 
Cc1cc2c3c(n(Cc4ccccc4)c2s1)CCN(C)C3.Cl [3.5(1)•HCl, 8-Benzyl-2,5-dimethyl-5,6,7,8-tetrahydro-4H-thieno[3′,2′:4,5]pyrrolo[3,2-c]pyridine hydrochloride] |  | 85% | 57% | 95% | 44% | 14% |  |  | 100% | 5% | 10% | 91% | 18% | 19% | 23% | 90% | 64% | 97%
